From US20260206756A1, “COMPOUNDS AND METHODS OF TREATING OR PREVENTING A BACTERIAL INFECTION IN A PLANT” (Ohio State Innovation Foundation, priority 2023, published 2026)
Values after ≈ are worked out from the molar mass of the structure shown. “Also recorded” adds a separate entry of the source. Where two headings read alike, the source gives them in different places.

Key:
[1] = test system: Pss SM1042-14R on pepper seedlings; format: in vivo, Pseudomonas syringae pv. syringae; details: 200 μM, 7 dpi; for Pseudomonas leaf spot incidence, Curative application / Pseudomonas leaf spot incidence, Preventative application: streptomycin 200 μg/ml, CuSO4 200 μM
Pss SM1042-14R = experiment: Antimicrobial resistance studies (single step and sequential passage); details: Pseudomonas syringae, SM104214R
Protocol: Antimicrobial resistance studies. […] For the single-step resistance, M9 agar medium amended with 2×MBC of PCs was prepared in a sterile 24-well plate. An overnight culture of SM1042-14R was normalized to OD600 of 1.0 (approximately 10^9 CFU/well). In each of the wells containing different PCs, 50 μl of the adjusted bacterial culture was plated onto the 24 well agar plate. The plate was sealed using parafilm and incubated in the dark at 28° C. for 15 days. After 15 days, any colonies that grew on the 24-well plate were evaluated for MIC and MBC as described above. The experiment was conducted with three replicates per treatment group. SM1042-14R plated on non-amended M9 agar medium, 2% DMSO or 50 μg/ml kanamycin were used as controls.
For sequential passage (sublethal dose) resistance assay, SM1042-14R was grown in M9 minimal broth and adjusted to OD600 of 0.05 (approximately 10^7 CFU/ml). In a 96-well plate, 98 μl of the adjusted bacterial culture was transferred and 0.75×MBC of PC (concentration that allows approximately 70% growth inhibition) was added into the wells. Plates were incubated at 28° C. with 150 rpm shaking for 24 h in the dark. After incubation, cells were centrifuged, the pellet was resuspended in fresh M9 broth amended with 0.75×MBC of PC and grown as described above. […] After 15 passages, MIC, and MBC of the PCs to SM1042-14R were determined as described above. […]

[2] = test system: Pss SM1042-14R in infested pepper seeds; experiment: Antimicrobial efficacy on pepper seeds artificially infested with Pss; format: in vivo, Pseudomonas syringae pv. syringae; details: 30 dpi, 200 μM, 20 min soak
Protocol: Antimicrobial efficacy of ten selected PCs on pepper seeds artificially infested with Pss SM1042-14R. ‘California Wonder’ pepper seeds were used for artificial infestation with Pss SM1042-14R and PC treatment. Inoculum of Pss SM1042-14R was prepared by growing SM1042-14R in M9 minimal medium overnight as described above. The OD600 was adjusted to 0.1; approximately 1×10^8 CFU/ml. The adjusted inoculum (45 ml of inoculum for 4 g seeds) was transferred to a sterile glass beaker and placed in a Nucerite desiccator (Nalge Sybron, Milwaukee, WI, USA). Seeds were vacuum infiltrated with inoculum at 15 PSI for 5 min. Infested seeds were air-dried in a laminar flow hood at room temperature for 12 h. The dried seeds were transferred to 5 ml sterile tubes and soaked in 1 ml of PCs (200 μM) diluted in sterile water for 20 min. The seeds were air-dried again. Seed aliquots were collected at 1, 3-, 10-, 20-, and 30-days post infestation (dpi, 10 seeds per treatment group per time point). Bacterial populations were estimated by macerating five batches of two seeds per treatment group in 400 μl of 1×PBS in a Whirl Pak bag. […] This was performed twice.

[3] = test system: ‘Sunset’ sweet bell pepper fruit; experiment: Phytotoxicity on bell pepper fruits; format: in vivo, Capsicum annuum; details: 7 days post treatment; PCs 200 μM; 1.2% thymol; 2% 2,4-D
Protocol: (§1) Phytotoxicity of the ten selected PCs on pepper tissues. The toxicity of the PCs to plant tissues was assessed on pepper seeds, seedlings, and fruits. […]
Toxicity on bell pepper fruits. Pepper fruits were thoroughly washed in soapy water and dried prior to PC treatment. On the surface of each fruit Sul of the PCs (200 μM final concentration) were deposited and air dried under a laminar hood for 30 min. The fruits were incubated in the dark at room temperature and monitored daily for necrotic and chlorotic symptoms. This was performed twice.

[4] = test system: ‘California Wonder’ pepper seeds; experiment: Phytotoxicity on pepper seeds (germination, root and shoot length); format: in vivo, Capsicum annuum; details: 14 days post treatment; PCs 200 μM; 1.2% thymol; 2% 2,4-D
Protocol: as §1
Toxicity on seeds. In 2 ml sterile glass vials, 1.5 ml of 1% molten water agar was prepared and supplemented with 200 μM of PCs. Four seeds (‘California Wonder’) were sown into the vials. […] After incubation, seed germination percentage, germling root and shoot length, and necrotic and chlorotic symptoms were recorded from eight treated seeds per treatment group. This was performed twice.

[5] = test system: ‘California Wonder’ pepper seedlings; experiment: Phytotoxicity on pepper seedling cotyledons; format: in vivo, Capsicum annuum; details: 7 days post application; PCs 200 μM; 1.2% thymol; 2% 2,4-D
Protocol: as §1
Toxicity on seedlings. ‘California Wonder’ pepper seeds were sown in sterile 2 ml glass vials containing 1.5 ml of 1% molten water agar. Four seeds were sown in each vial and incubated for 14 days in the dark at room temperature for the seedlings to sprout. Fifty microliters of PCs (200 μM final concentration) were deposited onto the cotyledons of the seedlings and incubated for another 7 days. After 7 days, necrotic and chlorotic symptoms were assessed for 16 treated seedlings per treatment group. This was performed twice.

pollinator honeybees = experiment: Honeybee acute topical contact toxicity bioassay; format: in vivo; details: 48 h, PCs 200 μM, thiamethoxam 0.35 μg per bee
Protocol: Toxicity of the ten PCs on pollinator honeybees. To determine whether the ten selected PCs were toxic to honeybees, an acute topical bioassay was used as recommended by the Ecological Effects Test Guidelines (OCSPP 8503020: Honeybee Acute Contact Toxicity Test). Frames of late stage capped brood were collected from two healthy colonies headed by New Carniolan queens maintained at The Ohio State University Wooster Campus. New adult bees were allowed to emerge in a dark incubator maintained at 32° C. and 60-80% relative humidity and brushed into bulk storage cages daily. Bees were fed sucrose in water (1:1 w/w) and aged for three days in the incubator. Cages of 3-day-old honeybees were anesthetized using carbon dioxide for 2 min and separated into groups of 20 housed in paper cups (UNIQ 6 oz Cups; Frozen Dessert Supplies, Rexburg, Idaho, USA) covered with #20 cotton cheesecloth. The ten PCs were prepared at 200 μM concentration in DMSO. Small groups of honeybees were anaesthetized again with 30 s of carbon dioxide before topical application. The honeybees were individually treated by topically applying lul of the PCs on the dorsal side of thorax using a micro applicator (Hamilton PB-600, Reno, Nevada, USA). […] The mortality of the bees was recorded daily for 48 h. […]

[6] = preventative (1 day prior to inoculation)

[H]/N=C(/N)N[C@H]1[C@H](O)[C@@H](O)[C@H](O[C@@H]2O[C@@H](C)[C@](O)(C=O)[C@H]2O[C@@H]2O[C@@H](CO)[C@H](O)[C@@H](O)[C@@H]2NC)[C@@H](N/C(N)=N\[H])[C@@H]1O [streptomycin]
Pseudomonas leaf spot incidence, Curative application [1]: 86% | Pseudomonas leaf spot incidence, Preventative application [1]: 71% | Pseudomonas leaf spot incidence, Curative application ([1]; listed as Strep): 86% | Pseudomonas leaf spot incidence, Preventative application ([1]; listed as Strep): 71% | Pss reduction compared to the DMSO group ([1]; curative (1 dpi)): 2.2±0.5 log CFU/g | disease severity (number of lesions per two leaves) ([1]; curative (1 dpi), first trial): 24.4±18.2 lesions | disease severity (number of lesions per two leaves) [1, 6]: 88.8±62.5 lesions | reduction in Pss load compared to the DMSO group [1, 6]: 1.7±0.8 log CFU/g | MBC (Pss SM1042-14R; SM1042-14R colonies after the sequential passages resistance assay): > 25 µg/mL | MBC (Pss SM1042-14R; original culture from glycerol stock): 12.5 µg/mL (≈ 21.5 µM) | reduction in Pss load in infested seeds [2]: 2.0±0 log CFU/g

O=C(O)COc1ccc(Cl)cc1Cl [2,4-D]
necrotic or chlorotic symptoms on pepper fruit surface [3]: severe necrotic and chlorotic symptoms; also recorded: caused chlorosis and deformation of the fruit surface | root length of germlings [4]: 1.5±0.7 cm | shoot length of germlings [4]: 0 cm | necrotic or chlorotic symptoms on seedling cotyledons [5]: severe necrotic and chlorotic symptoms; also recorded: caused necrotic or chlorotic symptoms

CN1COCN(Cc2cnc(Cl)s2)/C1=N\[N+](=O)[O-] [thiamethoxan, thiamethoxam]
honeybee mortality (pollinator honeybees): 100%
